Reference: patent publication US20260325561A1, “4'-SUBSTITUTED NUCLEOSIDES AND NUCLEOTIDES AS ANTIVIRAL AGENTS” (THE SCRIPPS RESEARCH INSTITUTE, priority 2023, published 2026)
pEC50: −log10 of the molar value.

Tests used:
DENV-2 = test: microbe, parasite or virus in culture; assay type: cell-based, DENV-2 16681; settings: Dengue virus, DENV2, HepG2, 24 h, read-out: DENV-2 / HepG2 EC50
SARS-CoV-2 = test: microbe, parasite or virus in culture; assay type: cell-based, SARS-CoV-2 strain USA-WA1/2020; settings: Severe acute respiratory syndrome coronavirus 2, HeLa-ACE2, 24 h, read-out: SARS-CoV-2 / HeLa-ACE2 EC50
CHIKV = test: microbe, parasite or virus in culture; assay type: cell-based, CHIKV strain 181/25; settings: Chikungunya virus, HepG2, 24 h, read-out: CHIKV / HepG2 EC50
in vitro [1] = settings: human, hepg2 cells
in vitro [2] = settings: human, hela-ace2 cells
RSV A2 = test: microbe, parasite or virus in culture; assay type: cell-based; settings: human respiratory syncytial virus, HEp-2, 72 h, read-out: RSV A2 / Hep2 EC50
HRV 14 = test: microbe, parasite or virus in culture; assay type: cell-based, Human Rhinovirus 14 strain 1059; settings: Rhinovirus B, H1-HeLa, 48 h, read-out: HRV / H1 HeLa B 14 EC50
HCMV = test: HCMV/HFF antiviral assay; assay type: cell-based; settings: Human betaherpesvirus 5, HFF
in vitro [3] = settings: human, hep2 cells
in vitro [4] = settings: human, h1 hela cells
Cytotoxicity, HFF = assay type: cell-based; settings: human, hff cells; read-out: HCMV/HFF CC50
HRV 16 = test: microbe, parasite or virus in culture; assay type: cell-based, Human Rhinovirus 16 strain 11757; settings: Rhinovirus A, H1-HeLa, 48 h, read-out: HRV / H1 HeLa A16 EC50

Structure (SMILES) | pEC50 (DENV-2) | pEC50 (SARS-CoV-2) | pEC50 (CHIKV) | CC50 at 72 h (in vitro [1]) | CC50 at 24 h (in vitro [2]) | pEC50 (RSV A2) | pEC50 (HRV 14) | pEC50 (HCMV) | CC50 (in vitro [3]) | CC50 (in vitro [4]) | CC50 (Cytotoxicity, HFF) | pEC50 (HRV 16)
Nc1ncnc2c1c(CO)cn2[C@@H]1O[C@](F)(CO)[C@@H](O)[C@H]1O [Example 17, (2S,3S,4R,5R)-5-(4-amino-5-(hydroxymethyl)-7H-pyrrolo[2,3-d]pyrimidin-7-yl)-2-fluoro-2-(hydroxymethyl)tetrahydrofuran-3,4-diol] | < 5.00 | < 5.00 | < 5.00 | 10 to 99 µM | > 99 µM |  |  |  |  |  |  | 
Nc1nc2c(ncn2[C@@H]2O[C@](F)(CO)[C@@H](O)C2(F)F)c(=O)[nH]1 [Example 71, 2-amino-9-((2R,4R,5S)-3,3,5-trifluoro-4-hydroxy-5-(hydroxymethyl)tetrahydrofuran-2-yl)-1,9-dihydro-6H-purin-6-one] | < 5.00 | < 5.00 |  | > 99 µM | > 99 µM | < 5.00 | < 5.00 | < 5.00 | > 99 µM | > 99 µM |  | 
[N-]=[N+]=N[C@]1(CO)O[C@@H](n2ccc3c(N)ncnc32)[C@@](F)(Cl)[C@@H]1O [Example 7, (2R,3R,4S,5R)-5-(4-amino-7H-pyrrolo[2,3-d]pyrimidin-7-yl)-2-azido-4-chloro-4-fluoro-2-(hydroxymethyl)tetrahydrofuran-3-ol] | < 5.00 | < 5.00 |  | > 99 µM | > 99 µM | < 5.00 | < 5.00 | < 5.00 | > 99 µM | > 99 µM | > 99 µM | 
Nc1ncnc2c1ccn2[C@@H]1O[C@](F)(CO)[C@@H](O)[C@]1(F)Cl [Example 6, (2S,3R,4S,5R)-5-(4-amino-7H-pyrrolo[2,3-d]pyrimidin-7-yl)-4-chloro-2,4-difluoro-2-(hydroxymethyl)tetrahydrofuran-3-ol] | < 5.00 | < 5.00 |  | > 99 µM | > 99 µM | < 5.00 | < 5.00 | < 5.00 | > 99 µM | > 99 µM | > 99 µM | 
N#Cc1cn([C@@H]2O[C@](F)(CO)[C@@H](O)[C@H]2O)c2ncnc(N)c12 [Example 26, 4-amino-7-((2R,3R,4S,5S)-5-fluoro-3,4-dihydroxy-5-(hydroxymethyl)tetrahydrofuran-2-yl)-7H-pyrrolo[2,3-d]pyrimidine-5-carbonitrile] | > 7.00 | 6.00 to 7.00 |  | < 1 µM | < 1 µM | > 7.00 | < 5.00 |  | < 1 µM | 1 to 10 µM |  | < 5.00
CCOc1nc(N)nc2c1ncn2[C@@H]1O[C@](F)(CO)[C@@H](O)[C@]1(F)Cl [Example 66, (2S,3R,4S,5R)-5-(2-amino-6-ethoxy-9H-purin-9-yl)-4-chloro-2,4-difluoro-2-(hydroxymethyl)tetrahydrofuran-3-ol] | < 5.00 | < 5.00 |  | > 99 µM | > 99 µM | < 5.00 | < 5.00 | < 5.00 | > 99 µM | > 99 µM |  | 
OC[C@@]1(F)O[C@@H](n2cc(Cl)c3cncnc32)[C@H](O)[C@@H]1O [Example 36, (2S,3S,4R,5R)-5-(5-chloro-7H-pyrrolo[2,3-d]pyrimidin-7-yl)-2-fluoro-2-(hydroxymethyl)tetrahydrofuran-3,4-diol] | > 7.00 | 6.00 to 7.00 |  | < 1 µM | 1 to 10 µM | 5.00 to 6.00 | < 5.00 | 6.00 to 7.00 | 10 to 99 µM | 10 to 99 µM | 1 to 10 µM | 
Nc1nc(Cl)nc2c1ncn2[C@@H]1O[C@](F)(CO)[C@@H](O)[C@H]1O [Example 43, (2S,3S,4R,5R)-5-(6-amino-2-chloro-9H-purin-9-yl)-2-fluoro-2-(hydroxymethyl)tetrahydrofuran-3,4-diol] | < 5.00 | < 5.00 |  | 10 to 99 µM | > 99 µM | < 5.00 | < 5.00 |  | > 99 µM | 10 to 99 µM |  | < 5.00
C#Cc1nc(N)c2ncn([C@@H]3O[C@](F)(CO)[C@@H](O)[C@H]3O)c2n1 [Example 18, (2S,3S,4R,5R)-5-(6-amino-2-ethynyl-9H-purin-9-yl)-2-fluoro-2-(hydroxymethyl)tetrahydrofuran-3,4-diol] | < 5.00 | < 5.00 |  | > 99 µM | > 99 µM | < 5.00 | < 5.00 |  | > 99 µM | > 99 µM |  | < 5.00
N#Cc1ncnc2c1ccn2[C@@H]1O[C@](F)(COC(=O)c2ccccc2)[C@@H](O)[C@H]1OC(=O)c1ccccc1 [Example 50, ((2S,3S,4R,5R)-4-(benzoyloxy)-5-(4-cyano-7H-pyrrolo[2,3-d]pyrimidin-7-yl)-2-fluoro-3-hydroxytetrahydrofuran-2-yl)methyl benzoate] | 6.00 to 7.00 | < 5.00 |  | 1 to 10 µM | 10 to 99 µM | < 5.00 | < 5.00 |  | 10 to 99 µM | 10 to 99 µM |  | < 5.00
O=c1[nH]cnc2c1ccn2[C@@H]1O[C@](F)(CO)[C@@H](O)[C@H]1O [Example 16, 7-((2R,3R,4S,5S)-5-fluoro-3,4-dihydroxy-5-(hydroxymethyl)tetrahydrofuran-2-yl)-3,7-dihydro-4H-pyrrolo[2,3-d]pyrimidin-4-one] | < 5.00 | < 5.00 |  | > 99 µM | > 99 µM | < 5.00 | < 5.00 | < 5.00 | > 99 µM | > 99 µM | > 99 µM | < 5.00
NC(=O)c1cc([C@@H]2O[C@](F)(COC(=O)c3ccccc3)[C@@H](O)[C@H]2O)n2ncnc(N)c12 [Example 34, ((2S,3S,4R,5S)-5-(4-amino-5-carbamoylpyrrolo[2,1-f][1,2,4]triazin-7-yl)-2-fluoro-3,4-dihydroxytetrahydrofuran-2-yl)methyl benzoate] | 5.00 to 6.00 | < 5.00 |  | < 1 µM | 1 to 10 µM | 6.00 to 7.00 | < 5.00 |  | < 1 µM | 1 to 10 µM |  | < 5.00
CCOc1nc(N)nc2c1ncn2[C@@H]1O[C@](F)(COP(=O)(N[C@@H](C)C(=O)OC(C)C)Oc2ccccc2)[C@@H](O)C1(F)F (stereo partly drawn) [Example 69, isopropyl ((((2S,3R,5R)-5-(2-amino-6-ethoxy-9H-purin-9-yl)-2,4,4-trifluoro-3-hydroxytetrahydrofuran-2-yl)methoxy)(phenoxy)phosphoryl)-L-alaninate] | 5.00 to 6.00 | < 5.00 |  | 10 to 99 µM | 10 to 99 µM | < 5.00 | < 5.00 | < 5.00 | 10 to 99 µM | 10 to 99 µM |  | 
C[C@]1(O)[C@H](n2ccc3c(N)ncnc32)O[C@](F)(CO)[C@H]1O [Example 10, (2S,3S,4R,5R)-5-(4-amino-7H-pyrrolo[2,3-d]pyrimidin-7-yl)-2-fluoro-2-(hydroxymethyl)-4-methyltetrahydrofuran-3,4-diol] | < 5.00 | < 5.00 |  | > 99 µM | > 99 µM | < 5.00 | < 5.00 |  | > 99 µM | > 99 µM |  | < 5.00
CCOc1nc(N)nc2c1ncn2[C@@H]1O[C@](F)(CO)[C@@H](O)[C@@]1(C)Cl [Example 63, (2S,3R,4R,5R)-5-(2-amino-6-ethoxy-9H-purin-9-yl)-4-chloro-2-fluoro-2-(hydroxymethyl)-4-methyltetrahydrofuran-3-ol] | < 5.00 | < 5.00 |  | 10 to 99 µM | > 99 µM | < 5.00 | < 5.00 | < 5.00 | > 99 µM | > 99 µM |  | 
C#C[C@]1(O)[C@H](n2ccc(N)nc2=O)O[C@](F)(CO)[C@H]1O [Example 44, 4-amino-1-((2R,3R,4S,5S)-3-ethynyl-5-fluoro-3,4-dihydroxy-5-(hydroxymethyl)tetrahydrofuran-2-yl)pyrimidin-2(1H)-one] | < 5.00 | < 5.00 |  | > 99 µM | > 99 µM | < 5.00 | < 5.00 |  | 10 to 99 µM | 10 to 99 µM |  | < 5.00
CCOc1nc(N)nc2c1ncn2[C@@H]1O[C@](F)(CO)[C@@H](O)C1(F)F [Example 60, (2S,3R,5R)-5-(2-amino-6-ethoxy-9H-purin-9-yl)-2,4,4-trifluoro-2-(hydroxymethyl)tetrahydrofuran-3-ol] | < 5.00 | < 5.00 |  | > 99 µM | > 99 µM | < 5.00 | < 5.00 | < 5.00 | > 99 µM | > 99 µM | > 99 µM | 
